Patent US20090130128A1, “Antiinfective Proanthocyanidin Compounds and Methods of Use Thereof” (priority 2007, published 2009)
Like-named read-outs stand apart in the source and are kept apart here.

Key:
Rhinovirus particles = assay type: binding
Dengue-2 virus particles = assay: Viral Direct Binding Assay with DART TOF-MS
H1N1 virions = assay: Viral Direct Binding Assay with DART TOF-MS; design: species or system Influenza A virus (H1N1); details: for relative percent of total binding species: bound to H1N1 after incubation in botanical extract
H5N1 virions = assay type: binding, Influenza A virus (H5N1); details: for relative percent of total binding species: bound to H5N1 after incubation in botanical extract
HIV-1 virions = assay type: binding
[1] = system: pseudotyped HIV-1 virions; assay type: cell-based; details: GHOST cells, range over clones
[2] = bound to Den-2 after incubation in botanical extract

Compound	Aver:Istro Ratio (Rhinovirus particles)	relative percent of total binding species (Rhinovirus particles) [%]	Aver:Istro Ratio (Dengue-2 virus particles)	relative percent of total binding species (Dengue-2 virus particles) [%]	Aver:Istro Ratio (H1N1 virions; binding ratio Averionol to Istrocyanidin on H1N1)	relative percent of total binding species (H1N1 virions) [%]	Aver:Istro Ratio (H5N1 virions; binding ratio Averionol to Istrocyanidin on H5N1)	relative percent of total binding species (H5N1 virions) [%]	Aver:Istro Ratio (HIV-1 virions)	relative percent of total binding species (HIV-1 virions) [%]	relative percent of total binding species (Dengue-2 virus particles; [2]) [%]	IC100 values for HIV-1 infection [1]
COc1cc(OC)c2c(=O)c(O)c(-c3ccc(OC)c(OC)c3)oc2c1 [Averionol]	2.3	69.5	3.7	78.5	18.9	69.8	14.0	86.9	5.9	85.6		
Istrocyanidin		30.5				3.7		6.2		14.4	21.2	
Proanthocyanidin B2												never achieved
Tristenonol		0				26.6		6.9		0	0	
